The text below walks through data of patent US12636295B2, “Compositions and methods for the treatment of obstructive sleep apnoea (OSA)” (Incannex Healthcare Limited, priority 2020, dated 2026).

Like-named read-outs stand apart in the source and are kept apart here.

The conditions of data set [1]: after ingestion; cited from earlier work.
The test system of data set [2] is subjects with OSA. The conditions noted are these: cited from earlier work; for Reduction in AHI (%): relative to baseline or placebo.
Data set [3] deals with subjects with OSA. In words: Published studies on the effect of single agent acetazolamide on AHI, with linear trend line dose-response. It counts as in vivo, human. The conditions noted are these: from linear trend line of published studies. The text has this:
These studies tested a range of doses across a selection of different patient cohorts.

Data set [4] has as its system subjects with OSA. In words: Published study (Carley et al. 2018) on the effect of single agent dronabinol on AHI, with trend line dose-response. It counts as in vivo, human. The following applies: from trend line of published data.

With `CC(=O)Nc1nnc(S(N)(=O)=O)s1` [Acetazolamide, acetazolamide], the “Time to mean peak plasma concentrations” value in data set [1] is on record as “about 2 hours”. The “Acetazolamide AHI” value was 29.6 in the data set on subjects with OSA [2] (250 mg/day, Chin, 1992, baseline/placebo AHI 38.9); 18.1 in the data set with subjects with OSA [2] (250 mg/day, Tojima, 1988, baseline/placebo AHI 25); 17.3 in the data set with subjects with OSA [2] (375 mg/day, Inoue, 1987, baseline/placebo AHI 26.9); 23 in the data set with subjects with OSA [2] (750 mg/day, Eskandari, 2018, baseline/placebo AHI 38); 24 in the data set with subjects with OSA [2] (1000 mg/day, Edwards, 2012, baseline/placebo AHI 49.6); 26 in the data set on subjects with OSA [2] (1000 mg/day, Whyte, 1988, baseline/placebo AHI 50). The “Reduction in AHI (%)” value is 23.9% with subjects with OSA [2] (250 mg/day, Chin, 1992); 27.6% in the data set on subjects with OSA [2] (250 mg/day, Tojima, 1988); 29.5% in the data set on subjects with OSA [2] (351.2 mg/day, Inoue, 1999); 35.7% in the data set on subjects with OSA [2] (375 mg/day, Inoue, 1987); 39.5% in the data set with subjects with OSA [2] (750 mg/day, Eskandari, 2018); 51.6% in the data set on subjects with OSA [2] (1000 mg/day, Edwards, 2012). In addition, in the data set with subjects with OSA [2] (1000 mg/day, Whyte, 1988), the “Reduction in AHI (%)” value is 48%. Moreover, the entries for the “Predicted AHI reduction (%), single agent” value (“Predicted AHI reduction (%)” for short) in the data set with subjects with OSA [3] (acetazolamide 125 mg), in the data set with subjects with OSA [3] (acetazolamide 250 mg) and with subjects with OSA [3] (acetazolamide 500 mg) were 23.4%, 27.1% and 34.5%, respectively.

For the compound `CCCCCc1cc(O)c2c(c1)OC(C)(C)C1CCC(C)=CC21` (stereo not drawn) [Dronabinol], in data set [1], the “Time to peak effects” value was 2 to 4 h and the “Time to significant concentrations in plasma/blood” value was 30 to 60 min. For the same compound, the “Predicted AHI reduction (%)” value in the data set on subjects with OSA [4] (dronabinol 2.5 mg/day) is listed as 23.4%. In addition, the “Predicted AHI reduction (%)” value in the data set on subjects with OSA [4] (dronabinol 5 mg/day) is on record as 26.5%.
